The values below are quoted from earlier work in patent US20150182553A1, “USE OF POLYMER D-LACTIC ACID (PDLA) TO TREAT MALARIA” (priority 2013, published 2015).

In data set [1] the test system is mitochondrial respiration of L-lactate. The note with it: brain and heart.
The conditions of data set [2]: metabolite of PDLA.

In the case of `C[C@@H](O)C(=O)O` [D-lactic acid], the “effect on mitochondrial respiration of L-lactate” value in data set [1] was “block mitochondrial respiration of L-lactate in the brain and heart”. Further, the “average plasma concentration that may be related to reversible symptoms of altered mental status, dysarthria, and ataxia” value in data set [2] is 7.98 mM.
